Measured values reported in patent US20130338106A1, “COMPOUNDS INHIBITING LEUCINE-RICH REPEAT KINASE ENZYME ACTIVITY” (priority 2011, published 2013).

Assays:
Type in all cases: biochemical
Conditions in all cases: tested at 10 uM, read-out: percent inhibition of the kinase activity
CHK1 = biological target: T1, CHK1 (Homo sapiens, UniProt O14757); assay: ProfilerPro Kinase Selectivity, CHK1
T1 construct: purchased Caliper LifeSciences
Experimental: (§1) Kinome selectivity profiling was performed using two example compounds according to the manufacturer's instructions using Caliper LifeSciences' ProfilerPro Kinase Selectivity Assay Kits. Compounds prepared in Examples 1 and 7 were tested at 10 uM and data were recorded using the Caliper LabChip® EZ Reader™. Each compounds' percent inhibition of the kinase activity measured in this manner is reported in the following lists.

RSK4 = biological target: T2, RSK4 (Homo sapiens, UniProt Q9UK32); assay: ProfilerPro Kinase Selectivity, RSK4
T2 construct: purchased Caliper LifeSciences
Experimental: as §1

PKACA = biological target: T3, PKACA (Homo sapiens, UniProt P17612); assay: ProfilerPro Kinase Selectivity, PKACA
T3 construct: purchased Caliper LifeSciences
Experimental: as §1

EPHA3 = biological target: T4, EPHA3 (Homo sapiens, UniProt P29320); assay: ProfilerPro Kinase Selectivity, EPHA3
T4 construct: purchased Caliper LifeSciences
Experimental: as §1

ERK2 = biological target: T5, ERK2 (Homo sapiens, UniProt P28482); assay: ProfilerPro Kinase Selectivity, ERK2
T5 construct: purchased Caliper LifeSciences
Experimental: as §1

MSK1 = biological target: T6, MSK1 (Homo sapiens, UniProt O75582); assay: ProfilerPro Kinase Selectivity, MSK1
T6 construct: purchased Caliper LifeSciences
Experimental: as §1

MST3 = biological target: T7, MST3 (Homo sapiens, UniProt Q9Y6E0); assay: ProfilerPro Kinase Selectivity, MST3
T7 construct: purchased Caliper LifeSciences
Experimental: as §1

CSNK1A1 = biological target: T8, CSNK1A1 (Homo sapiens, UniProt P48729); assay: ProfilerPro Kinase Selectivity, CSNK1A1
T8 construct: purchased Caliper LifeSciences
Experimental: as §1

HIPK1 = biological target: T9, HIPK1 (Homo sapiens, UniProt Q86Z02); assay: ProfilerPro Kinase Selectivity, HIPK1
T9 construct: purchased Caliper LifeSciences
Experimental: as §1

DYRK3 = biological target: T10, DYRK3 (Homo sapiens, UniProt O43781); assay: ProfilerPro Kinase Selectivity, DYRK3
T10 construct: purchased Caliper LifeSciences
Experimental: as §1

BLK = biological target: T11, BLK (Homo sapiens, UniProt P51451); assay: ProfilerPro Kinase Selectivity, BLK
T11 construct: purchased Caliper LifeSciences
Experimental: as §1

ITK = biological target: T12, ITK (Homo sapiens, UniProt Q08881); assay: ProfilerPro Kinase Selectivity, ITK
T12 construct: purchased Caliper LifeSciences
Experimental: as §1

CASEIN K1G2 = biological target: T13, CASEIN K1G2 (Homo sapiens, UniProt P78368); assay: ProfilerPro Kinase Selectivity, CASEIN K1G2
T13 construct: purchased Caliper LifeSciences
Experimental: as §1

EPHA5 = biological target: T14, EPHA5 (Homo sapiens, UniProt P54756); assay: ProfilerPro Kinase Selectivity, EPHA5
T14 construct: purchased Caliper LifeSciences
Experimental: as §1

INSR = biological target: T15, INSR (Homo sapiens, UniProt P06213); assay: ProfilerPro Kinase Selectivity, INSR
T15 construct: purchased Caliper LifeSciences
Experimental: as §1

MARK2 = biological target: T16, MARK2 (Homo sapiens, UniProt Q7KZI7); assay: ProfilerPro Kinase Selectivity, MARK2
T16 construct: purchased Caliper LifeSciences
Experimental: as §1

PKD3 = biological target: T17, PKD3 (Homo sapiens, UniProt O94806); assay: ProfilerPro Kinase Selectivity, PKD3
T17 construct: purchased Caliper LifeSciences
Experimental: as §1

AXL = biological target: T18, AXL (Homo sapiens, UniProt P30530); assay: ProfilerPro Kinase Selectivity, AXL
T18 construct: purchased Caliper LifeSciences
Experimental: as §1

ABL T315I = biological target: T19, ABL T315I (Homo sapiens, UniProt P00519, T315I); assay: ProfilerPro Kinase Selectivity, ABL T315I
T19 construct: purchased Caliper LifeSciences
Experimental: as §1

TSSK2 = biological target: T20, TSSK2 (Homo sapiens, UniProt Q96PF2); assay: ProfilerPro Kinase Selectivity, TSSK2
T20 construct: purchased Caliper LifeSciences
Experimental: as §1

TYRO3 = biological target: T21, TYRO3 (Homo sapiens, UniProt Q06418); assay: ProfilerPro Kinase Selectivity, TYRO3
T21 construct: purchased Caliper LifeSciences
Experimental: as §1

PDGFRA D842V = biological target: T22, PDGFRA D842V (Homo sapiens, UniProt P16234, D842V); assay: ProfilerPro Kinase Selectivity, PDGFRA D842V
T22 construct: purchased Caliper LifeSciences
Experimental: as §1

PASK = biological target: T23, PASK (Homo sapiens, UniProt Q96RG2); assay: ProfilerPro Kinase Selectivity, PASK
T23 construct: purchased Caliper LifeSciences
Experimental: as §1

MARK1 = biological target: T24, MARK1 (Homo sapiens, UniProt Q9P0L2); assay: ProfilerPro Kinase Selectivity, MARK1
T24 construct: purchased Caliper LifeSciences
Experimental: as §1

LCK = biological target: T25, LCK (Homo sapiens, UniProt P06239); assay: ProfilerPro Kinase Selectivity, LCK
T25 construct: purchased Caliper LifeSciences
Experimental: as §1

CAMK2A = biological target: T26, CAMK2A (Homo sapiens, UniProt Q9UQM7); assay: ProfilerPro Kinase Selectivity, CAMK2A
T26 construct: purchased Caliper LifeSciences
Experimental: as §1

KIT = biological target: T27, KIT (Homo sapiens, UniProt P10721); assay: ProfilerPro Kinase Selectivity, KIT
T27 construct: purchased Caliper LifeSciences
Experimental: as §1

AURC = biological target: T28, AURC (Homo sapiens, UniProt Q9UQB9); assay: ProfilerPro Kinase Selectivity, AURC
T28 construct: purchased Caliper LifeSciences
Experimental: as §1

ROS = biological target: T29, ROS (Homo sapiens, UniProt P08922); assay: ProfilerPro Kinase Selectivity, ROS
T29 construct: purchased Caliper LifeSciences
Experimental: as §1

MST1 = biological target: T30, MST1 (Homo sapiens, UniProt Q13043); assay: ProfilerPro Kinase Selectivity, MST1
T30 construct: purchased Caliper LifeSciences
Experimental: as §1

MET = biological target: T31, MET (Homo sapiens, UniProt P08581); assay: ProfilerPro Kinase Selectivity, MET
T31 construct: purchased Caliper LifeSciences
Experimental: as §1

P38A/SAPK2A T106M = biological target: T32, P38A/SAPK2A T106M (Homo sapiens, UniProt Q16539, T106M); assay: ProfilerPro Kinase Selectivity, P38A/SAPK2A T106M
T32 construct: purchased Caliper LifeSciences
Experimental: as §1

EPHB1 = biological target: T33, EPHB1 (Homo sapiens, UniProt P54762); assay: ProfilerPro Kinase Selectivity, EPHB1
T33 construct: purchased Caliper LifeSciences
Experimental: as §1

LYN = biological target: T34, LYN (Homo sapiens, UniProt P07948); assay: ProfilerPro Kinase Selectivity, LYN
T34 construct: purchased Caliper LifeSciences
Experimental: as §1

IGF1R = biological target: T35, IGF1R (Homo sapiens, UniProt P08069); assay: ProfilerPro Kinase Selectivity, IGF1R
T35 construct: purchased Caliper LifeSciences
Experimental: as §1

ABL1 Y253F = biological target: T36, ABL1 Y253F (Homo sapiens, UniProt P00519, Y253F); assay: ProfilerPro Kinase Selectivity, ABL1 Y253F
T36 construct: purchased Caliper LifeSciences
Experimental: as §1

SRM = biological target: T37, SRM (Homo sapiens, UniProt Q9H3Y6); assay: ProfilerPro Kinase Selectivity, SRM
T37 construct: purchased Caliper LifeSciences
Experimental: as §1

ROCK2 = biological target: T38, ROCK2 (Homo sapiens, UniProt O75116); assay: ProfilerPro Kinase Selectivity, ROCK2
T38 construct: purchased Caliper LifeSciences
Experimental: as §1

T4 sequence (P29320 21-983, species assumed): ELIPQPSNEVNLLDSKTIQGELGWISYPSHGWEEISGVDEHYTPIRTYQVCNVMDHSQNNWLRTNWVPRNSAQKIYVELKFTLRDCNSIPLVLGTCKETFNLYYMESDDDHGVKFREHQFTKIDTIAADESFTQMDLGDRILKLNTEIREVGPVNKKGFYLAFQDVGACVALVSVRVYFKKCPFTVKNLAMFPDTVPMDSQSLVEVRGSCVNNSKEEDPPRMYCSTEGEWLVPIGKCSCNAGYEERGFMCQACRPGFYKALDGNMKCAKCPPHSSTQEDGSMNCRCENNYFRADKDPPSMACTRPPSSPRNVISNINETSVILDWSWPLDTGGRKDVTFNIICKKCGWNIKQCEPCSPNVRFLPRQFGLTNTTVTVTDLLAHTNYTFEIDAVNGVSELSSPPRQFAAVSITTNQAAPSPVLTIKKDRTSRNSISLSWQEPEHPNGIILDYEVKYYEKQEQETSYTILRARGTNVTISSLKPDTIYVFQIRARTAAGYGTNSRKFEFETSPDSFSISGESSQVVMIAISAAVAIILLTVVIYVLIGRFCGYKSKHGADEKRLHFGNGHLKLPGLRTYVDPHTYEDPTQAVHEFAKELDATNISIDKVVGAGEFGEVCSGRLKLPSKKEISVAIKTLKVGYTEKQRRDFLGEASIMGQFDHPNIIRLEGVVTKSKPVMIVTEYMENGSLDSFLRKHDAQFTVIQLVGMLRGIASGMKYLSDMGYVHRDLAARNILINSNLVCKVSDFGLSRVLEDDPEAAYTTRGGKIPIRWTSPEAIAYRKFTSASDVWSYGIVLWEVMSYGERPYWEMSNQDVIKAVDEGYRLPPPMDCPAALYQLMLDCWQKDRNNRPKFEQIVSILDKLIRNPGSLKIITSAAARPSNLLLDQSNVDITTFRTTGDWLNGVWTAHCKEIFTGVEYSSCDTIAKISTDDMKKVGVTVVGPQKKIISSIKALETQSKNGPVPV
T14 sequence (P54756 25-1037, species assumed): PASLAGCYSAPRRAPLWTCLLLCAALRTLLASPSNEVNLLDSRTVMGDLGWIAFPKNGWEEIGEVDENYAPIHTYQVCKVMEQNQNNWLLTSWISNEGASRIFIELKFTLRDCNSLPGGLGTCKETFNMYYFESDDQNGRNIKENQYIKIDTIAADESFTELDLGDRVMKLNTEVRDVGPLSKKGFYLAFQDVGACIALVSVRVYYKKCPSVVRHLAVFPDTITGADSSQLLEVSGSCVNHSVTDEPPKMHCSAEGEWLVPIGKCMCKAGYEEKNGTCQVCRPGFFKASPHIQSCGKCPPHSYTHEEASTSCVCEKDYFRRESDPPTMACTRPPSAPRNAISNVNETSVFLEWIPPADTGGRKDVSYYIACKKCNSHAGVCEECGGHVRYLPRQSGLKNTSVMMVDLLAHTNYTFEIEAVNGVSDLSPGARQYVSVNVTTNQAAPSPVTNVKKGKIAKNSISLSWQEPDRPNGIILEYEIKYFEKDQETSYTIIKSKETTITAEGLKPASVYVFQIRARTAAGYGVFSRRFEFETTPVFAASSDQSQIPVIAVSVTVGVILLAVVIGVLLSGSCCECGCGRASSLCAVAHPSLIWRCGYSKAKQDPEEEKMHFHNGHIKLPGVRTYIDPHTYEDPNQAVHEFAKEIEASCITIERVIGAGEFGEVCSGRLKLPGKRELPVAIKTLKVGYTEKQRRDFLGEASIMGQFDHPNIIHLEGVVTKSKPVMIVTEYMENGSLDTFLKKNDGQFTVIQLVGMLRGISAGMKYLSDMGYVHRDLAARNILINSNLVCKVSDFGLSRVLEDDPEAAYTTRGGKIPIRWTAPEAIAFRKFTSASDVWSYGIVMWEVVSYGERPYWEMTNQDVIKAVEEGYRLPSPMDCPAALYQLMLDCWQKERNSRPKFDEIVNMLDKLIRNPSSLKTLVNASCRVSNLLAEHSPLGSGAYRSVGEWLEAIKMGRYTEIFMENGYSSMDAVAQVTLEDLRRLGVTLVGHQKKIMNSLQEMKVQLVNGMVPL
T34 sequence (P07948 whole entry, species assumed): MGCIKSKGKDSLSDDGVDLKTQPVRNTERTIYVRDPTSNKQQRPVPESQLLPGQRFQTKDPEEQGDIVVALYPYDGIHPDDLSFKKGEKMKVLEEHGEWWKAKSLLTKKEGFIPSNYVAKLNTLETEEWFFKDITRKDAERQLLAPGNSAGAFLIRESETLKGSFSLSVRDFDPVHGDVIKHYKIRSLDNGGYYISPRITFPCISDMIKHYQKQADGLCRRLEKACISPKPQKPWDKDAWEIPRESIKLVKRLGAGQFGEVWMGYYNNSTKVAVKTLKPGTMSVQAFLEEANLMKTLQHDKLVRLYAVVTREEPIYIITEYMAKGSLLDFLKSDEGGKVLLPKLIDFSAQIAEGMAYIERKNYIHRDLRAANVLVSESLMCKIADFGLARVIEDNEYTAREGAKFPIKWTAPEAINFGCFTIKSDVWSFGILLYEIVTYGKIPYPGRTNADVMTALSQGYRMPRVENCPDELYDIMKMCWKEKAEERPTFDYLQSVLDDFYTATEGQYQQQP
T18 sequence (P30530 26-894, species assumed): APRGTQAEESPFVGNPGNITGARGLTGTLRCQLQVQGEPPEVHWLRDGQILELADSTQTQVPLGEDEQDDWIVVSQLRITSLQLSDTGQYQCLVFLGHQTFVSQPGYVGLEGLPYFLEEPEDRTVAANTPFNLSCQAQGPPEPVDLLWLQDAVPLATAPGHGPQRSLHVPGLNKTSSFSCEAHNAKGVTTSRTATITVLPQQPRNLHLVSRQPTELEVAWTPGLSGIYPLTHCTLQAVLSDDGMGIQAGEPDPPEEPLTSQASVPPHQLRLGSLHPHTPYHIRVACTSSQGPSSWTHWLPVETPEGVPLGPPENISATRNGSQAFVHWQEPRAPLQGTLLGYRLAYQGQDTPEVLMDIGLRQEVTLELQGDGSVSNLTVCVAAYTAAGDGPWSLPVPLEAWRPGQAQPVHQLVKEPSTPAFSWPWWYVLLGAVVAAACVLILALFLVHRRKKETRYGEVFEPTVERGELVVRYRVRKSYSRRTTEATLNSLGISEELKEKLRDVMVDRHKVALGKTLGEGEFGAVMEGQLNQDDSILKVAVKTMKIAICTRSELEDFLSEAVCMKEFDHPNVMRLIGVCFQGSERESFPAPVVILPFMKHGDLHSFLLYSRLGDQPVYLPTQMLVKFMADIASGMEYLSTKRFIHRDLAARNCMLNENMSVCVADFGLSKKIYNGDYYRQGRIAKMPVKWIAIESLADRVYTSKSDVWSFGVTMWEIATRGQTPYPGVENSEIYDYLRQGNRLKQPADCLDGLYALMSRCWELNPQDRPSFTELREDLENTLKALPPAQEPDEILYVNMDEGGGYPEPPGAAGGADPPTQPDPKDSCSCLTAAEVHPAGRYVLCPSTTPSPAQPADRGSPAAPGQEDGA
T38 sequence (O75116 whole entry, species assumed): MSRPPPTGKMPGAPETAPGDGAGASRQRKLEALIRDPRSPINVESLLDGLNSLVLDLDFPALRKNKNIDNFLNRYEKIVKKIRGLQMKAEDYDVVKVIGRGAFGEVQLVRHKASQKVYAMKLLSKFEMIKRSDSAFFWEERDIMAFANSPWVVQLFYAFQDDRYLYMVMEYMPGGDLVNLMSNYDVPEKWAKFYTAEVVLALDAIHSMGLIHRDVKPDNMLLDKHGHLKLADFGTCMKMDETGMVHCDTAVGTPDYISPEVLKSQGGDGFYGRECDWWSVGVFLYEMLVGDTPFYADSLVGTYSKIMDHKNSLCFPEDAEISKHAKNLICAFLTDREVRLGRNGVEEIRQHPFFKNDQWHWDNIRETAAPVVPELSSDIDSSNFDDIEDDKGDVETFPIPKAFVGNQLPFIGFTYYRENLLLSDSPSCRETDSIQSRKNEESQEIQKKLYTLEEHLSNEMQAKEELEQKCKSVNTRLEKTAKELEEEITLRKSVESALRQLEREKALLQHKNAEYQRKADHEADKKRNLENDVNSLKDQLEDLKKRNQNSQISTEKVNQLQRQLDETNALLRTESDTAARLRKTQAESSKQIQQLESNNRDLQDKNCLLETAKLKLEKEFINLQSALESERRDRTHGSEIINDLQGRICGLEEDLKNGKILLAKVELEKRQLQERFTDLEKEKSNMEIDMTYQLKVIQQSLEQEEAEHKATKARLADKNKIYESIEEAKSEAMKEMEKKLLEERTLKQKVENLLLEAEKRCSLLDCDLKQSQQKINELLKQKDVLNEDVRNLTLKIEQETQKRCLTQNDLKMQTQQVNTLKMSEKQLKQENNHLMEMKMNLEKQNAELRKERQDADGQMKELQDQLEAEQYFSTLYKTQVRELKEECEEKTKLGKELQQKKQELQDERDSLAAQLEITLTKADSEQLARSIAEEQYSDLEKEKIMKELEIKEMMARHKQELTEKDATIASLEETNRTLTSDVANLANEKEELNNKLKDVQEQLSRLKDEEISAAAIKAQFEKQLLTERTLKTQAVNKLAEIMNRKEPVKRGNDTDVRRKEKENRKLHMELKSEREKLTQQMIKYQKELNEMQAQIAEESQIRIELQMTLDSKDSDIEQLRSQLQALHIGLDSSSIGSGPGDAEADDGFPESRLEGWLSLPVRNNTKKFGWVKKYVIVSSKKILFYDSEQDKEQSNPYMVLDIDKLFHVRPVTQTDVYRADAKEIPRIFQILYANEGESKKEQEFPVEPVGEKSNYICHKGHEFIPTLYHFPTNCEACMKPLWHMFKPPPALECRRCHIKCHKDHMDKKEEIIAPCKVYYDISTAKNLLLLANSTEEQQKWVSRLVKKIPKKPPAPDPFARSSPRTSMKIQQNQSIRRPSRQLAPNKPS
T5 sequence (P28482 whole entry, species assumed): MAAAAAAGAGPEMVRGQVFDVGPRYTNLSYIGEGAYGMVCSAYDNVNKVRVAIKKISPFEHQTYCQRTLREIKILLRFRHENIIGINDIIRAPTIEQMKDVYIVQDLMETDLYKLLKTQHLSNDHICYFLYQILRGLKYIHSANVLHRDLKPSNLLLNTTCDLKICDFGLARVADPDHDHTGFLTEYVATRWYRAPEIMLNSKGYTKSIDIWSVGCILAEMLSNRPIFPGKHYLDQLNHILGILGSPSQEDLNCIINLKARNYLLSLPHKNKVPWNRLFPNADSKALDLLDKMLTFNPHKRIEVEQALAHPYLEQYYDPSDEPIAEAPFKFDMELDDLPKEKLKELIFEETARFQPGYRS

## CSc1sc(-c2cc[nH]n2)c2c1C(=O)CCC2 [Example 1, 3-(Methylsulfanyl)-1-(1H-pyrazol-3-yl)-6,7-dihydro-2-benzothiophen-4(5H)-one]
CHK1
  inhibition at 10 µM: 0%
RSK4
  inhibition at 10 µM: 2.9%
PKACA
  inhibition at 10 µM: -6%
EPHA3
  inhibition at 10 µM: -2.2%
ERK2
  inhibition at 10 µM: 4.5%
MSK1
  inhibition at 10 µM: 5.1%
MST3
  inhibition at 10 µM: -2.2%
CSNK1A1
  inhibition at 10 µM: 12.4%
HIPK1
  inhibition at 10 µM: 15.9%
DYRK3
  inhibition at 10 µM: 11.7%
BLK
  inhibition at 10 µM: 6.6%
ITK
  inhibition at 10 µM: 4.8%
CASEIN K1G2
  inhibition at 10 µM: 6.9%
EPHA5
  inhibition at 10 µM: -3.1%
INSR
  inhibition at 10 µM: 3.4%
MARK2
  inhibition at 10 µM: 0.3%
PKD3
  inhibition at 10 µM: 12%
AXL
  inhibition at 10 µM: 13.5%
ABL T315I
  inhibition at 10 µM: 9.9%
TSSK2
  inhibition at 10 µM: 20.1%
TYRO3
  inhibition at 10 µM: 8.6%
PDGFRA D842V
  inhibition at 10 µM: 33.9%
PASK
  inhibition at 10 µM: 2.6%
MARK1
  inhibition at 10 µM: -2.9%
LCK
  inhibition at 10 µM: 4%
CAMK2A
  inhibition at 10 µM: -4.8%
KIT
  inhibition at 10 µM: 19.2%
AURC
  inhibition at 10 µM: 27.9%
ROS
  inhibition at 10 µM: 33.7%
MST1
  inhibition at 10 µM: 7.2%
MET
  inhibition at 10 µM: 8.2%
P38A/SAPK2A T106M
  inhibition at 10 µM: 1.2%
EPHB1
  inhibition at 10 µM: 3%
LYN
  inhibition at 10 µM: 10.2%
IGF1R
  inhibition at 10 µM: 5.4%
ABL1 Y253F
  inhibition at 10 µM: 2.5%
SRM
  inhibition at 10 µM: 3.5%
ROCK2
  inhibition at 10 µM: -3.5%

## CC1(C)CC(=O)c2c(SC3CCCC3)sc(-c3cc[nH]n3)c2C1 [Example 7, 3-(Cyclopentylsulfanyl)-6,6-dimethyl-1-(1H-pyrazol-3-yl)-6,7-dihydro-2-benzothiophen-4(5H)-one]
CHK1
  inhibition at 10 µM: 8%
RSK4
  inhibition at 10 µM: -5.6%
PKACA
  inhibition at 10 µM: -5.4%
EPHA3
  inhibition at 10 µM: -2.9%
ERK2
  inhibition at 10 µM: -0.9%
MSK1
  inhibition at 10 µM: -2.8%
MST3
  inhibition at 10 µM: -10.9%
CSNK1A1
  inhibition at 10 µM: 2%
HIPK1
  inhibition at 10 µM: -1%
DYRK3
  inhibition at 10 µM: -8.5%
BLK
  inhibition at 10 µM: 3.2%
ITK
  inhibition at 10 µM: -2.9%
CASEIN K1G2
  inhibition at 10 µM: 8.6%
EPHA5
  inhibition at 10 µM: 1.5%
INSR
  inhibition at 10 µM: 0.9%
MARK2
  inhibition at 10 µM: 9.2%
PKD3
  inhibition at 10 µM: 2.6%
AXL
  inhibition at 10 µM: 12.3%
ABL T315I
  inhibition at 10 µM: 2.6%
TSSK2
  inhibition at 10 µM: -2.3%
TYRO3
  inhibition at 10 µM: 10.5%
PDGFRA D842V
  inhibition at 10 µM: 3.7%
PASK
  inhibition at 10 µM: -10.8%
MARK1
  inhibition at 10 µM: -0.6%
LCK
  inhibition at 10 µM: 23.3%
CAMK2A
  inhibition at 10 µM: 1.7%
KIT
  inhibition at 10 µM: -7.3%
AURC
  inhibition at 10 µM: 3.5%
ROS
  inhibition at 10 µM: 42.7%
MST1
  inhibition at 10 µM: -3%
MET
  inhibition at 10 µM: -0.9%
P38A/SAPK2A T106M
  inhibition at 10 µM: 3.7%
EPHB1
  inhibition at 10 µM: 3.3%
LYN
  inhibition at 10 µM: 4%
IGF1R
  inhibition at 10 µM: -3.7%
ABL1 Y253F
  inhibition at 10 µM: 10.6%
SRM
  inhibition at 10 µM: 3%
ROCK2
  inhibition at 10 µM: 0.9%
